Assay results from patent publication US20240252463A1, “METHODS OF TREATING FIBROTIC PATHOLOGIES” (Mayo Foundation for Medical Education and Research, priority 2018, published 2024).

Experiments:
TAZ4SA = experiment: Gene expression and ECM deposition in NIH-3T3 cells expressing constitutively active mutant TAZ (TAZ4SA); format: cell-based, mouse; settings: doxycycline-induced TAZ4SA NIH-3T3
Description: FIGS. 8A-8B DHX inhibition of pro-fibrotic gene expression and matrix deposition requires inhibition of YAP/TAZ. […] TAZ4SA expression was induced with 100 ng/mL doxycycline for 72 hours prior to treatment with 10 μM or the indicated concentration of dihydrexidine. For gene expression experiments efficacy of DHX in NIH-3T3 cells was validated with by DHX (10 μM) effect on TGFβ (24 hour, 2 ng/mL) induced gene expression. N=2 for all.
Cell culture: Cells were all maintained in EMEM (ATCC) containing 10% FBS, unless otherwise noted. IMR-90 embryonic lung fibroblasts and NIH-3T3 mouse fibroblasts were purchased from ATCC. Doxycycline-inducible Tet-On NIH3T3 expressing TAZ4SA or control empty vector were described previously. Normal Human Alveolar Epithelial Cells (NHAEpCs), Normal Human Microvascular Endothelial Cells (NHMVECs), Normal Human Lung Fibroblasts (NHLFs), and Human Dermal Fibroblasts (HDFs) were purchased from Lonza and were cultured in the proprietary media per Lonza's recommendation. Human Adult Cardiac Fibroblasts (HACFs) and Hepatic Stellate Cells (HSCs) were purchased from ScienCell and were cultured in the proprietary media per ScienCell's recommendation. Hepatocytes were purchased from Samsara and were cultured in the proprietary media per Samsara's recommendation. […]

CTGF, COL1A1, ACTA2, FN1 = experiment: qPCR of profibrotic and matrix remodeling gene expression in IPF patient-derived fibroblasts; format: cell-based, human; settings: 2 ng/mL TGFβ and 10 μM DHX, 24 hours
Description: FIGS. 3A-3F DHX reverses fibroblast matrix deposition, contraction and stiffening. 3a. […] Genes which encode Connective tissue growth factor (CTGF), Collagen I (COL1A1), αSMA (ACTA2), and Fibronectin (FN1) are reduced by 24 hour treatment with DHX (10 μM), +/−SCH 39166 (3 μM). N=3 (****p<0.0001, ***p<0.001, *p<0.05 vs. 0.1% DMSO vehicle control) 3b. DHX reverses TGFβ-induced αSMA+ stress fiber formation. IMR-90 cells pre-stimulated with 2 ng/mL TGFβ for 48 hours and then treated with DHX (10 μM)+2 ng/mL TGFβ for an additional 24 hours prior to fixation. Cells which are positive for αSMA were quantified by a blinded investigator and noted in the bottom right corner, a minimum of 300 cells in each experiment were quantified. N=3. 3c. DHX reverses TGFβ-induced extracellular matrix accumulation. […] Cell derived matrix is measured using antibodies for Collagen I and Fibronectin. […] DHX attenuates IPF patient-derived fibroblast contractility measured by traction force microscopy. […] RMS tractions were determined in two independent experiments; box and whisker plots show min to max, quartile, and mean from one representative experiment (****p<0.0001, *p<0.05 vs. 0.1% DMSO vehicle control). […] The matrices were decellularized and passage 3 NHLFs were plated onto the matrices; after 24 hours RNA was collected and expression of profibrotic genes was analyzed. […]

Question: Which results are given for Oc1cc2c(cc1O)[C@H]1c3ccccc3CN[C@@H]1CC2 (racemic) [Dihydrexidine, dihydrexidine]?
Answer: profibrotic gene expression and extracellular matrix accumulation in TAZ4SA cells (TAZ4SA): had no effect on profibrotic gene expression or extracellular matrix accumulation; expression of matrix crosslinking, protease inhibitor and matrix degradation genes (CTGF, COL1A1, ACTA2, FN1): reversed the effects of TGFβ
